The results in this text go back to patent publication US20260013502A1, “METHOD FOR TERMINATING COVER CROP GROWTH” (SUMITOMO CHEMICAL COMPANY, LIMITED, priority 2022, published 2026).

Test [1] relates to cereal rye (Secale cereale). As to the kind of experiment: Example 9: outdoor pot test, foliar application, termination of cereal rye growth. The note with it: cereal rye, outdoors, applied 24 days after seeding, epyrifenacil/saflufenacil 20 g/ha, glyphosate-potassium salt 1,543 g/ha. It is filed as in vivo. The procedure: A plastic pot was filled with soil, and cereal rye (Secale cereale) was seeded and grown outdoors. Twenty-four days after seeding, RoundupPowerMax was diluted with water, and then the cereal rye was subjected to foliar application from above using an automatic sprayer at a spray volume of 200 L/ha to achieve an application rate of 1,543 g/ha as glyphosate-potassium salt.
At the same time, the cereal rye was similarly seeded in another plastic pot and grown. Twenty-four days after seeding, epyrifenacil emulsifiable concentrate (55 g/L) or saflufenacil suspension (341 g/L) was diluted with water containing 1% (v/v) adjuvant Agri-Dex, and then the cereal rye was subjected to foliar application from above using an automatic sprayer at a spray volume of 200 L/ha to achieve an application rate of 20 g/ha.
At the same time, the cereal rye was similarly seeded in another plastic pot and grown. Twenty-four days after seeding, the above-ground parts were harvested and the dry matter weight (hereinafter referred to as untreated dry matter weight) was measured.
The cereal rye applied with the herbicide was grown outdoors after application with the herbicide, and in case the growth was terminated, the above-ground parts were harvested at termination of the growth and the dry matter weight was measured. In this test, the growth was judged to be terminated when death of terminal and lateral buds was visually confirmed. The date at the beginning of the onset of effect, the growth termination date, and the dry matter weight at the time of growth termination are shown in Table 3. The onset of the effect was judged by visually observing the change in leaf color. Application with each herbicide was performed using seven pots. The date at the beginning of the onset of effect and the growth termination date in the table were dates on which the onset of effect and growth termination were confirmed in all seven pots, respectively. The incremental dry matter weight was the value calculated by the following formula (1).
Incremental dry matter weight=average dry matter weight at the time of growth termination−average untreated dry matter weight 24 days after seeding Formula (1): • Average dry matter weight at the time of growth termination: average value of dry matter weights of 7 pots at the time of growth termination • Average untreated dry matter weight 24 days after seeding: average value of untreated dry matter weights of 7 pots

Test [2] concerns cereal rye (Secale cereale). Briefly: Example 7: greenhouse pot test, foliar application, termination of cereal rye growth. The settings on record: cereal rye, greenhouse; death of terminal and lateral buds in all 3 pots; epyrifenacil/saflufenacil 25 g/ha applied 21 days after seeding, glyphosate-potassium salt 1,543 g/ha applied 15 days after seeding. It is filed as in vivo. The procedure:
A plastic pot was filled with soil, and cereal rye (Secale cereale) was seeded and grown in a greenhouse. Fifteen days after seeding, RoundupPowerMax was diluted with water, and then the cereal rye was subjected to foliar application from above using an automatic sprayer at a spray volume of 200 L/ha to achieve an application rate of 1,543 g/ha as glyphosate-potassium salt.
At the same time, the cereal rye was similarly seeded in another plastic pot and grown. Twenty-one days after seeding, epyrifenacil emulsifiable concentrate (55 g/L) or saflufenacil suspension (341 g/L) was diluted with water containing 1% (v/v) adjuvant Agri-Dex, and then the cereal rye was subjected to foliar application from above using an automatic sprayer at a spray volume of 200 L/ha to achieve an application rate of 25 g/ha.
After application with the herbicide, the cereal rye was grown in a greenhouse, and in case the growth was terminated, the above-ground parts were harvested at termination of the growth and the dry matter weight was measured. In this test, the growth was judged to be terminated when death of terminal and lateral buds was visually confirmed. The date at the beginning of the onset of effect, the growth termination date, and the dry matter weight at the time of growth termination are shown in Table 1. The onset of the effect was judged by visually observing the change in leaf color. Application with each herbicide was performed using three pots. The date at the beginning of the onset of effect and the growth termination date in the table were dates on which the onset of effect and growth termination were confirmed in all three pots, respectively. The dry matter weight was the average of the three pots.

Turning to `CC(C)N(C)S(=O)(=O)NC(=O)c1cc(-n2c(=O)cc(C(F)(F)F)n(C)c2=O)c(F)cc1Cl` [Saflufenacil, saflufenacil], the Growth termination date entry was “failed to terminate the growth” in test [1] (death of terminal and lateral buds in all 7 pots); “failed to terminate the growth” in test [2]. The “Date at the beginning of the onset of effect” value in test [1] (visual change in leaf color in all 7 pots, day relative to application) is reported as “Day after”.
